Data on 28 compounds can be found in ChEMBL document CHEMBL3792288, “VP1 crystal structure-guided exploration and optimization of 4,5-dimethoxybenzene-based inhibitors of rhinovirus 14 infection” (Eur J Med Chem, 2016).

Data set [1] is described as follows: Cytotoxicity against human HeLa Rh cells assessed as cell viability by light microscopy. In kind it is cell-based.
A further data set has as its system Rhinovirus A. The data set can be described thus: Antiviral activity against Human Rhinovirus A serotype 2 infected in HeLa Rh cells assessed as reduction of virus-induced cytopathic effect after 3 days by MTS assay. It is filed as functional, cell-based. (In general: Cytopathic effects are the visible damage that an infection or toxin causes in cultured cells.)

The next data set concerns Rhinovirus B. The data set can be described thus: Antiviral activity against Human Rhinovirus B serotype 14 infected in HeLa Rh cells assessed as reduction of virus-induced cytopathic effect after 3 days by MTS assay. It is filed as functional, organism-based. The following applies: serotype 14, HeLa Rh, 72 h.
Data set [2] is described as follows: Selectivity index, ratio of CC50 for human HeLa Rh cells to EC50 for Human Rhinovirus B serotype 14 infected in HeLa Rh cells. In kind it is toxicity, cell-based. The conditions noted are these: read-out: Ratio CC50/EC50.

Active and inactive are the calls of the source. No cut-off for these calls is given here. Where only a bound is given, the exact number is not on record here.

Broadly, the CC50 is the concentration that lowers cell viability or growth by half. In general, EC50 refers to the concentration needed to bring the measured effect to its halfway point. For the compound `Cc1cc(CCCOc2c(C)cc(-c3noc(C(F)(F)F)n3)cc2C)on1` [PLECONARIL], in data set [1], the 50% cytotoxic concentration (CC50) turned out to be 50.2 µM. For the same compound, the outcome with Rhinovirus A was inactive. Besides, the concentration giving a half-maximal response (EC50) with Rhinovirus B was determined as 0.2 µM.
On to `COc1cc(CC(O)c2ccc(-c3ccc(Cl)cc3)cc2)c([N+](=O)[O-])cc1OC` (stereo not drawn), for which the CC50 in data set [1] worked out at 4.1 µM. Also, the outcome with Rhinovirus A was inactive. In the data set with Rhinovirus B, the EC50 is above 4.1 µM.
`COc1cc(CC(O)c2ccc(-c3cccc(C#N)c3)cc2)c([N+](=O)[O-])cc1OC` (stereo not drawn): the CC50 in data set [1] was 5.2 µM. In addition, in the data set with Rhinovirus A, the result was inactive. Moreover, in the data set on Rhinovirus B, the EC50 stood at 1.4 µM. Besides, the selectivity ratio in data set [2] came to 3.7.
On the same counts, the results for `COc1cc(CC(O)c2ccc(-c3cccnc3)cc2)c([N+](=O)[O-])cc1OC` (stereo not drawn) are above 263 µM, “inactive”, 2 µM and above 132.
As to `COc1cc(CC(O)c2ccc(-c3ccc([N+](=O)[O-])cc3)cc2)c([N+](=O)[O-])cc1OC` (stereo not drawn), the CC50 in data set [1] came to 21 µM. Besides, the outcome in the data set with Rhinovirus A was inactive. Besides, the EC50 in the data set with Rhinovirus B was 4.7 µM. In addition, in data set [2], the selectivity ratio is 4.5.
Regarding `COc1cc(CC(O)c2ccc(-c3ccccc3[N+](=O)[O-])cc2)c([N+](=O)[O-])cc1OC` (stereo not drawn), the CC50 in data set [1] came to 9.5 µM. For the same compound, the result in the data set with Rhinovirus A was inactive. Moreover, in the data set with Rhinovirus B, the EC50 is 1.5 µM. Further, the selectivity ratio in data set [2] was found to be 6.3.
As for `COc1cc(CC(O)c2ccc(-c3ccoc3)cc2)c([N+](=O)[O-])cc1OC` (stereo not drawn), the CC50 in data set [1] stood at 5.3 µM. Besides, in the data set on Rhinovirus A, the result was inactive. Further, the 50% effective concentration (EC50) with Rhinovirus B turned out to be 1.6 µM. Moreover, in data set [2], the selectivity ratio turned out to be 3.3.
Regarding `COc1cc(CC(O)c2ccc(-c3ccc(C#N)cc3)cc2)c([N+](=O)[O-])cc1OC` (stereo not drawn), in data set [1], the CC50 was 4.7 µM. For the same compound, the result with Rhinovirus A was inactive. For the same compound, the 50% effective concentration (EC50) with Rhinovirus B is above 4.7 µM.
In the case of `COc1cc(CC(O)c2ccc(-c3ccc(C(F)(F)F)cc3)cc2)c([N+](=O)[O-])cc1OC` (stereo not drawn), the CC50 in data set [1] is 4.1 µM. For the same compound, in the data set on Rhinovirus A, the outcome was inactive. Also, in the data set with Rhinovirus B, the half-maximal effective concentration (EC50) is above 6 µM.
As for `COc1cc(CC(O)c2ccc(-c3cccc(F)c3)cc2)c([N+](=O)[O-])cc1OC` (stereo not drawn), the CC50 in data set [1] was determined as 7.4 µM. Also, the outcome in the data set with Rhinovirus A was inactive. For the same compound, in the data set with Rhinovirus B, the 50% effective concentration (EC50) amounted to 2.2 µM. In data set [2], the selectivity ratio was determined as 3.4.
Regarding `COc1cc(CC(O)c2ccc(-c3ccc(Br)cc3)cc2)c([N+](=O)[O-])cc1OC` (stereo not drawn), in data set [1], the half-maximal cytotoxic concentration (CC50) is 4.3 µM. For the same compound, in the data set on Rhinovirus A, the result was inactive. In the data set with Rhinovirus B, the EC50 is above 4.3 µM.
For the compound `COc1cc(CC(O)c2ccc(-c3ccc(C=O)cc3)cc2)c([N+](=O)[O-])cc1OC` (stereo not drawn), the half-maximal cytotoxic concentration (CC50) in data set [1] is above 245 µM. For the same compound, the result with Rhinovirus A was inactive. In addition, in the data set with Rhinovirus B, the EC50 is above 245 µM.
In the case of `COc1cc(CC(O)c2ccc(-c3cccc(CO)c3)cc2)c([N+](=O)[O-])cc1OC` (stereo not drawn), the CC50 in data set [1] was found to be 6 µM. In addition, in the data set with Rhinovirus A, the outcome was inactive. In the data set on Rhinovirus B, the EC50 was determined as 1.4 µM. For the same compound, the selectivity ratio in data set [2] came to 4.3.
Take `COc1cc(CC(O)c2ccc(-c3ccccc3F)cc2)c([N+](=O)[O-])cc1OC` (stereo not drawn): in data set [1], the CC50 was determined as 5 µM. The outcome in the data set with Rhinovirus A was inactive. In addition, the EC50 in the data set with Rhinovirus B is above 5 µM.
As to `COc1cc(CC(O)c2ccc(C#N)cc2)c([N+](=O)[O-])cc1OC` (stereo not drawn), the 50% cytotoxic concentration (CC50) in data set [1] came to 104 µM. For the same compound, the EC50 in the data set with Rhinovirus B turned out to be 2.2 µM.
Consider `COc1cc(CC(O)c2ccc(-c3ccc(CO)cc3)cc2)c([N+](=O)[O-])cc1OC` (stereo not drawn), for which the CC50 in data set [1] was above 244 µM. Moreover, the result in the data set on Rhinovirus A was inactive. For the same compound, the concentration for a half-maximal effect (EC50) with Rhinovirus B was above 244 µM.
For the compound `COc1ccc(-c2ccc(C(O)Cc3cc(OC)c(OC)cc3[N+](=O)[O-])cc2)cc1` (stereo not drawn), the 50% cytotoxic concentration (CC50) in data set [1] was above 244 µM. In addition, in the data set with Rhinovirus A, the result was inactive. For the same compound, the half-maximal effective concentration (EC50) with Rhinovirus B is above 244 µM.
`COc1cc(CC(O)c2ccc(-c3ccccc3C#N)cc2)c([N+](=O)[O-])cc1OC` (stereo not drawn): the CC50 in data set [1] turned out to be 9.3 µM. In addition, the outcome with Rhinovirus A was inactive. Also, the EC50 with Rhinovirus B was above 9.3 µM.
Take `COc1cc(CC(O)c2ccc(-c3ccc(C)cc3)cc2)c([N+](=O)[O-])cc1OC` (stereo not drawn): in data set [1], the CC50 turned out to be 4.7 µM. Besides, the outcome in the data set with Rhinovirus A was inactive. For the same compound, the concentration giving a half-maximal response (EC50) with Rhinovirus B is above 4.7 µM.
`COc1cc(CC(O)c2cccc(-c3ccc(C#N)cc3)c2)c([N+](=O)[O-])cc1OC` (stereo not drawn): the CC50 in data set [1] amounted to 9.3 µM. The result in the data set with Rhinovirus A was inactive. Moreover, the half-maximal effective concentration (EC50) in the data set with Rhinovirus B is above 9.3 µM.
For `COc1cc(CC(O)c2cccc(-c3ccc(Cl)cc3)c2)c([N+](=O)[O-])cc1OC` (stereo not drawn), the 50% cytotoxic concentration (CC50) in data set [1] is 5 µM. Further, in the data set with Rhinovirus A, the result was inactive. Moreover, the concentration for a half-maximal effect (EC50) in the data set with Rhinovirus B is above 5 µM.
Consider `COc1cc(CC(O)c2ccc(-c3ccccc3CO)cc2)c([N+](=O)[O-])cc1OC` (stereo not drawn), for which the CC50 in data set [1] was 24 µM. The result with Rhinovirus A was inactive. Besides, in the data set with Rhinovirus B, the EC50 was 3 µM. Moreover, the selectivity ratio in data set [2] was 8.
With `COc1cc(CC(O)c2ccc(-c3cccc([N+](=O)[O-])c3)cc2)c([N+](=O)[O-])cc1OC` (stereo not drawn), in data set [1], the cytotoxic concentration (CC50) stood at 5.5 µM. Also, the result in the data set with Rhinovirus A was inactive. Besides, the EC50 with Rhinovirus B stood at 2.2 µM. Further, in data set [2], the selectivity ratio came to 2.5.
Turning to `COc1cc(CC(O)c2ccc(-c3ccncc3)cc2)c([N+](=O)[O-])cc1OC` (stereo not drawn), the half-maximal cytotoxic concentration (CC50) in data set [1] is above 263 µM. Further, in the data set on Rhinovirus A, the result was inactive. Moreover, in the data set with Rhinovirus B, the concentration for a half-maximal effect (EC50) was found to be 3.4 µM. Besides, in data set [2], the selectivity ratio is above 77.3.
For the compound `COc1cc(CC(O)c2ccc(-c3cccc(Cl)c3)cc2)c([N+](=O)[O-])cc1OC` (stereo not drawn), the half-maximal cytotoxic concentration (CC50) in data set [1] is 5.9 µM. The result in the data set on Rhinovirus A was inactive. Also, the EC50 in the data set on Rhinovirus B turned out to be 1.7 µM. For the same compound, the selectivity ratio in data set [2] turned out to be 3.5.
For the compound `COc1cc(CC(O)c2ccc(-c3cccs3)cc2)c([N+](=O)[O-])cc1OC` (stereo not drawn), the 50% cytotoxic concentration (CC50) in data set [1] was 11 µM. Also, the result in the data set on Rhinovirus A was inactive. In addition, in the data set on Rhinovirus B, the 50% effective concentration (EC50) is 1.6 µM. In data set [2], the selectivity ratio is 6.9.
Regarding `COc1cc(CC(O)c2ccc(-c3ccccc3)cc2)c([N+](=O)[O-])cc1OC` (stereo not drawn), the EC50 in the data set with Rhinovirus B came to 1.97 µM.
Consider `COc1cc(CC(O)c2ccc(-c3ccc(F)cc3)cc2)c([N+](=O)[O-])cc1OC` (stereo not drawn), for which the CC50 in data set [1] came to 4.5 µM. In addition, in the data set on Rhinovirus A, the outcome was inactive. Also, in the data set with Rhinovirus B, the EC50 is above 4.5 µM.
